According to US20260193293A1, “PEPTIDES CAPABLE OF INHIBITING PROTEIN-PROTEIN INTERACTIONS AT GABAB1A SUBUNIT AND USES THEREOF” (UNIVERSITY OF COPENHAGEN, priority 2022, published 2026):
Like-named read-outs stand apart in the source and are kept apart here. One block for each compound: values may come before it. Non-standard residues stand in square brackets, D forms with d. Residues, ends and D or L forms follow the SMILES beside them. Phe(4-NH2) = Nc1ccc(C[C@H](N)C(=O)O)cc1; 2Nal = N[C@@H](Cc1ccc2ccccc2c1)C(=O)O

Target: Sushi domains (SD1/2) protein
Assay: Fluorescence polarization (FP) competition assay with AJAP-1probe, calculated Ki
Format: binding
In short: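 Ki values were derived from IC50s (sigmoidal fits, ≥ triplicate), with probe Kd obtained by saturation titration of SD1/2. Peptides displaced a 25 nM TAMRA-labelled probe; polarization read at 530/580 nm in 1% BSA-containing PBS, pH 7.4, room temperature.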

[1] = Table 10, deep mutational scanning validation variants of APPWT, read-out: Ki (nM) mean ± SEM
[2] = Table 9, Ala-, D-amino acids and N-methylation scans of PIANPWT, read-out: Ki (nM) mean ± SEM
[3] = purified peptides, read-out: Ki
[4] = Table 11, deep mutational scanning validation variants of AJAP-1WT, read-out: Ki (nM) mean ± SEM
[5] = Table 5, elongation and truncation scan of AJAP-1 binding epitope, read-out: Ki (nM) mean ± SEM

Compound: CC(=O)N[C@@H](CCC(=O)O)C(=O)N[C@@H](CCC(=O)O)C(=O)N[C@@H](CC(=O)O)C(=O)N[C@@H](CC(=O)O)C(=O)N[C@@H](CO)C(=O)N[C@@H](CC(=O)O)C(=O)N[C@H](C(=O)N[C@@H](Cc1c[nH]c2ccccc12)C(=O)N[C@@H](Cc1c[nH]c2ccccc12)C(=O)NCC(=O)NCC(=O)N[C@@H](C)C(=O)N[C@@H](CC(=O)O)C(=O)N[C@H](C(=O)N[C@@H](CC(=O)O)C(=O)N[C@@H](Cc1ccc(O)cc1)C(=O)N[C@@H](C)C(N)=O)[C@@H](C)O)C(C)C (Ac-EEDDSDVWWGGADTDYA-NH2)
- Ki (Table 4, truncation and elongation scans of APP epitope, read-out: Ki (nM) mean ± SEM): 299 ± 8 nM

Compound: CC(=O)N[C@@H](CCC(=O)O)C(=O)N[C@@H](CC(=O)O)C(=O)N[C@@H](CC(=O)O)C(=O)N[C@@H](CO)C(=O)N[C@@H](CC(=O)O)C(=O)N[C@H](C(=O)N[C@@H](CC(=O)O)C(=O)N[C@@H](Cc1c[nH]c2ccccc12)C(=O)NCC(=O)NCC(=O)N[C@@H](C)C(=O)N[C@@H](CC(=O)O)C(=O)N[C@H](C(=O)N[C@@H](CC(=O)O)C(N)=O)[C@@H](C)O)C(C)C (Ac-EDDSDVDWGGADTD-NH2)
- Ki [1]: 4804 ± 43 nM

Compound: CC(=O)N[C@@H](CCC(=O)O)C(=O)N[C@@H](CC(=O)O)C(=O)N[C@@H](CC(=O)O)C(=O)N[C@@H](CO)C(=O)N[C@@H](Cc1ccc2ccccc2c1)C(=O)N[C@H](C(=O)N[C@@H](Cc1c[nH]c2ccccc12)C(=O)N[C@@H](Cc1c[nH]c2ccccc12)C(=O)NCC(=O)NCC(=O)N[C@@H](C)C(=O)N[C@@H](CC(=O)O)C(=O)N[C@H](C(=O)N[C@@H](CC(=O)O)C(N)=O)[C@@H](C)O)C(C)C (Ac-EDDS[2Nal]VWWGGADTD-NH2)
- Ki [3]: 43 nM
- fold increased affinity compared to Asp207Trp (relative to Asp207Trp mutant of APPWT): 2 fold

Compound: CC(=O)N[C@@H](CCC(=O)O)C(=O)N[C@@H](CC(=O)O)C(=O)N[C@@H](CC(=O)O)C(=O)N[C@@H](CO)C(=O)N[C@@H](CC(=O)O)C(=O)N[C@H](C(=O)N[C@@H](Cc1c[nH]c2ccccc12)C(=O)N[C@@H](Cc1c[nH]c2ccccc12)C(=O)NCC(=O)NCC(=O)N[C@@H](Cc1c[nH]cn1)C(=O)N[C@@H](CC(=O)O)C(=O)N[C@H](C(=O)N[C@@H](CC(=O)O)C(N)=O)[C@@H](C)O)C(C)C (Ac-EDDSDVWWGGHDTD-NH2)
- Ki [1]: 346 ± 6 nM

Compound: CC[C@H](C)[C@H](NC(=O)[C@H](C)NC(=O)[C@H](Cc1c[nH]c2ccccc12)NC(=O)[C@@H]1CCCN1C(C)=O)C(=O)N[C@H](C(=O)N[C@@H](Cc1c[nH]c2ccccc12)C(=O)NCC(=O)N1CCC[C@H]1C(N)=O)C(C)C (Ac-PWAIVWGP-NH2)
- Ki (Table 6, elongation and truncation scan of PIANP binding epitope, read-out: Ki (nM) mean ± SEM): 597 ± 7 nM

Compound: CC[C@H](C)[C@H](NC(=O)[C@H](Cc1ccccc1)NC(=O)[C@H](CCC(=O)O)NC(=O)[C@@H](NC(=O)[C@H](CCC(=O)O)NC(C)=O)[C@@H](C)O)C(=O)N[C@@H](C)C(=O)N[C@@H](Cc1c[nH]c2ccccc12)C(=O)NCC(=O)N1CCC[C@H]1C(=O)N[C@@H](CO)C(=O)NCC(=O)N[C@@H](CC(=O)O)C(=O)N[C@@H](CCC(=O)O)C(=O)N[C@@H](CC(=O)O)C(N)=O [ETEFIAWGPSGDED] (Ac-ETEFIAWGPSGDED-NH2)
- Ki [4]: 32 ± 1 nM

Compound: CC(=O)N[C@@H](CCC(=O)O)C(=O)N[C@@H](CC(=O)O)C(=O)N[C@@H](CC(=O)O)C(=O)N[C@@H](CO)C(=O)N[C@@H](CC(=O)O)C(=O)N[C@H](C(=O)N[C@@H](Cc1c[nH]c2ccccc12)C(=O)N[C@@H](Cc1c[nH]c2ccccc12)C(=O)NCC(=O)NCC(=O)N[C@@H](C)C(=O)N[C@@H](CC(=O)O)C(=O)N[C@@H](Cc1c[nH]cn1)C(=O)N[C@@H](CC(=O)O)C(N)=O)C(C)C (Ac-EDDSDVWWGGADHD-NH2)
- Ki [1]: 739 ± 9 nM

Compound: EDDSDVWW(Aphe)GADTD (Ac-EDDSDVWW[Phe(4-NH2)]GADTD-NH2; SMILES CC(=O)N[C@@H](CCC(=O)O)C(=O)N[C@@H](CC(=O)O)C(=O)N[C@@H](CC(=O)O)C(=O)N[C@@H](CO)C(=O)N[C@@H](CC(=O)O)C(=O)N[C@H](C(=O)N[C@@H](Cc1c[nH]c2ccccc12)C(=O)N[C@@H](Cc1c[nH]c2ccccc12)C(=O)N[C@@H](Cc1ccc(N)cc1)C(=O)NCC(=O)N[C@@H](C)C(=O)N[C@@H](CC(=O)O)C(=O)N[C@H](C(=O)N[C@@H](CC(=O)O)C(N)=O)[C@@H](C)O)C(C)C)
- Ki (Table 16, ncAAs incorporated peptides, read-out: Ki (nM) mean ± SEM): 102 ± 1 nM

Compound: CC[C@H](C)[C@H](NC(=O)[C@H](Cc1ccccc1)NC(=O)[C@H](CCC(=O)O)NC(=O)[C@@H](NC(=O)[C@H](CCC(=O)O)NC(=O)[C@@H](NC(C)=O)[C@@H](C)O)[C@@H](C)O)C(=O)N[C@@H](C)C(=O)N[C@@H](Cc1c[nH]c2ccccc12)C(=O)NCC(=O)N1CCC[C@H]1C(N)=O (Ac-TETEFIAWGP-NH2)
- Ki [5]: 574 ± 7 nM

Other lines, results leading:

- Ki [2]: 480 ± 4 nM
Compound: CC[C@H](C)[C@H](NC(=O)[C@H](C)NC(=O)[C@H](Cc1c[nH]c2ccccc12)NC(=O)[C@@H]1CCCN1C(C)=O)C(=O)N[C@H](C(=O)N[C@@H](Cc1c[nH]c2ccccc12)C(=O)NCC(=O)N1CCC[C@H]1C(=O)N[C@H](C(=O)N[C@H](C(=O)N[C@@H](C)C(=O)N[C@@H](CCCNC(=N)N)C(=O)N[C@@H](CCC(=O)O)C(=O)N[C@@H](CC(=O)O)C(N)=O)C(C)C)[C@@H](C)O)C(C)C [PWAIVWGPTVARED] (Ac-PWAIVWGPTVARED-NH2)

- Ki (CPP tagged peptides overview, SD1/2 binding affinity, mean ± SEM, n ≥ 3, read-out: Ki): 79 ± 1 nM
- Ki (Table 14, CPPs tagged peptides, read-out: Ki (nM) mean ± SEM): 78.5 ± 1 nM
Compound: CC[C@H](C)[C@H](NC(=O)[C@H](Cc1c[nH]c2ccccc12)NC(=O)[C@H](CC(=O)O)NC(=O)[C@H](CC(=O)O)NC(=O)[C@H](CC(=O)O)NC(=O)[C@H](CCC(=O)O)NC(C)=O)C(=O)N[C@@H](CC(=O)O)C(=O)N[C@@H](Cc1c[nH]c2ccccc12)C(=O)NCC(=O)N1CCC[C@H]1C(=O)N[C@H](C(=O)N[C@@H](CO)C(=O)N[C@@H](CC(=O)O)C(=O)N[C@@H](CC(=O)O)C(=O)N[C@@H](CC(=O)O)C(=O)N[C@@H](Cc1ccc(O)cc1)C(=O)NCC(=O)N[C@@H](CCCNC(=N)N)C(=O)N[C@@H](CCCCN)C(=O)N[C@@H](CCCCN)C(=O)N[C@@H](CCCNC(=N)N)C(=O)N[C@@H](CCCNC(=N)N)C(=O)N[C@@H](CCC(N)=O)C(=O)N[C@@H](CCCNC(=N)N)C(=O)N[C@@H](CCCNC(=N)N)C(=O)N[C@@H](CCCNC(=N)N)C(N)=O)[C@@H](C)O [Peptide 17-Tat] (Ac-EDDDWIDWGPTSDDDYGRKKRRQRRR-NH2)

- Ki (Table 13, peptides for affinity maturation, read-out: Ki (nM) mean ± SEM): 222 ± 1 nM
Compound: CC[C@H](C)[C@H](NC(=O)[C@H](C)NC(=O)[C@H](Cc1c[nH]c2ccccc12)NC(=O)[C@@H]1CCCN1C(C)=O)C(=O)N[C@H](C(=O)N[C@@H](Cc1c[nH]c2ccccc12)C(=O)NCC(=O)N1CCC[C@H]1C(=O)N[C@H](C(=O)NCC(=O)N[C@@H](CC(=O)O)C(=O)N[C@@H](CCC(=O)O)C(=O)N[C@@H](CC(=O)O)C(N)=O)[C@@H](C)O)C(C)C [PWAIVWGPTGDED] (Ac-PWAIVWGPTGDED-NH2)

- Ki [4]: 32 ± 1 nM
Compound: CC[C@H](C)[C@H](NC(=O)[C@H](Cc1ccccc1)NC(=O)[C@H](CCC(=O)O)NC(=O)[C@@H](NC(=O)[C@H](CCC(=O)O)NC(C)=O)[C@@H](C)O)C(=O)N[C@@H](C)C(=O)N[C@@H](Cc1c[nH]c2ccccc12)C(=O)NCC(=O)N1CCC[C@H]1C(=O)N[C@H](C(=O)N[C@@H](CCCNC(=N)N)C(=O)N[C@@H](CC(=O)O)C(=O)N[C@@H](CCC(=O)O)C(=O)N[C@@H](CC(=O)O)C(N)=O)[C@@H](C)O [ETEFIAWGPTRDED] (Ac-ETEFIAWGPTRDED-NH2)

- Ki [2]: 1500 ± 34 nM
Compound: CC[C@H](C)[C@H](NC(=O)[C@H](C)NC(=O)[C@H](Cc1c[nH]c2ccccc12)NC(=O)[C@@H]1CCCN1C(C)=O)C(=O)N[C@H](C(=O)N[C@@H](Cc1c[nH]c2ccccc12)C(=O)NCC(=O)N[C@@H](C)C(=O)N[C@H](C(=O)N[C@H](C(=O)N[C@@H](CO)C(=O)N[C@@H](CCCNC(=N)N)C(=O)N[C@@H](CCC(=O)O)C(=O)N[C@@H](CC(=O)O)C(N)=O)C(C)C)[C@@H](C)O)C(C)C [PWAIVWGATVSRED] (Ac-PWAIVWGATVSRED-NH2)

- Ki [2]: 341 ± 7 nM
Compound: CC[C@H](C)[C@H](NC(=O)[C@H](C)NC(=O)[C@H](Cc1c[nH]c2ccccc12)NC(=O)[C@@H]1CCCN1C(C)=O)C(=O)N[C@H](C(=O)N[C@@H](Cc1c[nH]c2ccccc12)C(=O)NCC(=O)N1CCC[C@H]1C(=O)N[C@H](C(=O)N[C@H](C(=O)N[C@@H](CO)C(=O)N[C@@H](C)C(=O)N[C@@H](CCC(=O)O)C(=O)N[C@@H](CC(=O)O)C(N)=O)C(C)C)[C@@H](C)O)C(C)C [PWAIVWGPTVSAED] (Ac-PWAIVWGPTVSAED-NH2)

- Ki (Table 12, deep mutational scanning validation variants of PIANPWT, read-out: Ki (nM) mean ± SEM): 327 ± 6 nM
Compound: CC[C@H](C)[C@H](NC(=O)[C@H](C)NC(=O)[C@H](Cc1c[nH]c2ccccc12)NC(=O)[C@@H]1CCCN1C(C)=O)C(=O)N[C@H](C(=O)N[C@@H](Cc1c[nH]c2ccccc12)C(=O)NCC(=O)N1CCC[C@H]1C(=O)N[C@H](C(=O)N[C@H](C(=O)N[C@@H](CO)C(=O)N[C@@H](CC(=O)O)C(=O)N[C@@H](CCC(=O)O)C(=O)N[C@@H](CC(=O)O)C(N)=O)C(C)C)[C@@H](C)O)C(C)C [PWAIVWGPTVSDED] (Ac-PWAIVWGPTVSDED-NH2)

- Ki [5]: 26 ± 0.3 nM
- Ki [3]: 23 nM
Compound: CC[C@H](C)[C@H](NC(=O)[C@H](Cc1ccccc1)NC(=O)[C@H](CCC(=O)O)NC(=O)[C@@H](NC(=O)[C@H](CCC(=O)O)NC(=O)[C@@H](NC(C)=O)[C@@H](C)O)[C@@H](C)O)C(=O)N[C@@H](C)C(=O)N[C@@H](Cc1c[nH]c2ccccc12)C(=O)NCC(=O)N1CCC[C@H]1C(=O)N[C@H](C(=O)NCC(=O)N[C@@H](CC(=O)O)C(=O)N[C@@H](CCC(=O)O)C(=O)N[C@@H](CC(=O)O)C(N)=O)[C@@H](C)O [Peptide 15, Ac-TETEFIAWGPTGDED-NH2] (Ac-TETEFIAWGPTGDED-NH2)
